Experimental data taken from PMC9396645 (Frontiers in Chemistry, 2022).
Read-outs that look alike come from different tables or passages of the source.

What was measured:
C4-2 cells = assay: Internalization efficiency / specific cell uptake in C4-2 cells; format: cell-based, human
Experimental: The specific internalization ratio was determinated in 24-well plates. The plates were previously coated with 0.1% poly-L-lysine in PBS for 20 min and washed with PBS once. C4-2 cells (10^5 cells per analysis) were added to each well and equilibrated overnight. The cells were incubated for 45 min with 250 µL of a 30 nM solution of the ^68Ga-labeled compounds either in a water bath at 37°C or on ice. The PSMA-receptor-blocking agent 2-(phosphonomethyl)pentanedioic acid (2-PMPA; 500 μM; Axxora) was used to verify the specificity of the cellular uptake of the novel compounds. The cells were washed thrice (using 1 ml of ice-cold PBS), followed by an incubation with 0.5 ml of a glycine solution (50 mM in HCl at a pH of 2.8) for 5 min, washed once with 1 ml of ice-cold PBS, and finally lysed with 0.5 ml of 0.3 M NaOH. The lysate was collected, and the radioactivity was measured in a gamma-counter. Triplicate measurements were performed for all experiments.

prostate cancer patients = tested on: prostate cancer patients; set-up: method as in earlier work; conditions: patients PET/CT, ref Afshar-Oromieh et al. (2015a) and Afshar-Oromieh et al. (2015b), cited from earlier work
[1] = ^68Ga-labeled compounds 30 nM, 45 min, 37°C, specificity by 2-PMPA 500 μM, mean ± SD (n = 3)

SMILES: O=C(O)CC[C@H](NC(=O)N[C@@H](CCCCNC(=O)[C@H](Cc1ccc2ccccc2c1)NC(=O)[C@H]1CC[C@H](CNC(=O)CN2CCN(CC(=O)O)CCN(CC(=O)O)CCN(CC(=O)O)CC2)CC1)C(=O)O)C(=O)O [PSMA-617, reference compound]
- specific internalization in C4-2 cells (C4-2 cells; Table 2): 15.6 % ID/10^6 cells
- Specific cell surface (C4-2 cells; [1]): 45.18 ± 3.61 %IA/10^6cells
- Specific lysate (internalization) (C4-2 cells; [1]): 15.55 ± 3.07 %IA/10^6 cells

SMILES: O=C([O-])CN1CCN(CC(=O)[O-])CCN(CC(=O)NCC2CCC(C(=O)NC(Cc3ccc4ccccc4c3)C(=O)NCCCCC(NC(=O)NC(CCC(=O)O)C(=O)O)C(=O)O)CC2)CCN(CC(=O)[O-])CC1.[68Ga+3] (centres unmarked) [^68Ga-PSMA-617]
- Specific lysate (internalization) (C4-2 cells; [1]): 15.5 ± 3.1 %IA/10^6 cells
- SUV mean Blood pool, mediastinal (prostate cancer patients; 1 h p.i.): 2.5
- SUV mean Bone metastasis (prostate cancer patients; 1 h p.i.): 9.4
- SUV mean Colon (prostate cancer patients; 1 h p.i.): 3.5
- SUV mean Gluteal muscle (prostate cancer patients; 1 h p.i.): 0.7
- SUV mean Kidneys (prostate cancer patients; 1 h p.i.): 15.6
- SUV mean Lacrimal gland (prostate cancer patients; 1 h p.i.): 4.9
- SUV mean Liver (prostate cancer patients; 1 h p.i.): 3.3
- SUV mean Lymph node (prostate cancer patients; 1 h p.i.): 7.1
- SUV mean Nasal mucosa (prostate cancer patients; 1 h p.i.): 2.9
- SUV mean Parotid gland (prostate cancer patients; 1 h p.i.): 10.4
- SUV mean Proximal small intestine (prostate cancer patients; 1 h p.i.): 4.7
- SUV mean Spleen (prostate cancer patients; 1 h p.i.): 4.3
- SUV mean Sublingual gland (prostate cancer patients; 1 h p.i.): 4.6
- SUV mean Submandibular gland (prostate cancer patients; 1 h p.i.): 10
- SUV mean Blood pool, mediastinal (prostate cancer patients; 3 h p.i.): 2.4
- SUV mean Bone metastasis (prostate cancer patients; 3 h p.i.): 6.3
- SUV mean Colon (prostate cancer patients; 3 h p.i.): 4.0
- SUV mean Gluteal muscle (prostate cancer patients; 3 h p.i.): 0.7
- SUV mean Kidneys (prostate cancer patients; 3 h p.i.): 17.0
- SUV mean Lacrimal gland (prostate cancer patients; 3 h p.i.): 5.9
- SUV mean Liver (prostate cancer patients; 3 h p.i.): 2.7
- SUV mean Lymph node (prostate cancer patients; 3 h p.i.): 13.5
- SUV mean Nasal mucosa (prostate cancer patients; 3 h p.i.): 3.4
- SUV mean Parotid gland (prostate cancer patients; 3 h p.i.): 13.1
- SUV mean Proximal small intestine (prostate cancer patients; 3 h p.i.): 5.5
- SUV mean Spleen (prostate cancer patients; 3 h p.i.): 3.5
- SUV mean Sublingual gland (prostate cancer patients; 3 h p.i.): 4.0
- SUV mean Submandibular gland (prostate cancer patients; 3 h p.i.): 12.4
